Source: the Deep4Chem optical property database

Test: solvent given as SMILES

## c1ccc(-c2c3ccccc3c(-c3ccc(-c4cccnc4)cc3)c3ccccc23)cc1
In ClCCl
  emission maximum: 417 nm

## O=S(=O)([O-])CCCCN1C=C/C(=C/C=C/C=C/c2cc[n+](CCCCS(=O)(=O)[O-])c3ccccc23)c2ccccc21
In CO
  emission maximum: 830 nm

## CC(C)c1cccc(C(C)C)c1N1C(=O)c2cc(Oc3ccc(C(C)(C)C)cc3)c3c4c(Oc5ccc(C(C)(C)C)cc5)cc5c6c(cc(Oc7ccc(C(C)(C)C)cc7)c(c7c(Oc8ccc(C(C)(C)C)cc8)cc(c2c37)C1=O)c64)C(=O)N(c1c(C(C)C)cccc1C(C)C)C5=O
In Cc1ccccc1
  emission maximum: 611 nm

## Cc1nc2c(ccc3ccc(O)cc32)oc1=O
In c1ccccc1
  emission maximum: 461 nm

## Cc1nc(-c2ccc(N3c4ccccc4C(c4ccccc4)(c4ccccc4)c4ccccc43)cc2)cc(-c2ccc(N3c4ccccc4C(c4ccccc4)(c4ccccc4)c4ccccc43)cc2)n1
In Cc1ccccc1
  emission maximum: 453 nm
In O=P(c1ccccc1)(c1ccccc1)c1ccc2oc3ccc(P(=O)(c4ccccc4)c4ccccc4)cc3c2c1
  emission maximum: 458 nm

## COc1ccc(C2=C3C=c4c(oc5cc6c(cc45)[C@H]4CC[C@]5(C)C(=O)CC[C@H]5[C@@H]4CC6)=[N+]3[B-](F)(F)n3c2cc2c4cc5c(cc4oc23)CC[C@@H]2[C@@H]5CC[C@]3(C)C(=O)CC[C@@H]23)cc1
In CCOC(C)=O
  emission maximum: 615 nm
In CCOCC
  emission maximum: 611.5 nm
In CO
  emission maximum: 613.5 nm

## COc1ccc2c(c1)c1cc(OC)ccc1c1c2c2c(C(=O)NC(C)(C)C)ccc(C(=O)NC(C)(C)C)c2c2c3ccc(OC)cc3c3cc(OC)ccc3c21
In ClCCl
  emission maximum: 498 nm

## CC1(C)C2=[N+](CCCCCC(=O)NCCCNC(=O)CCCCCN3/C(=C/C=C/C=C/C=C/2)C(C)(C)c2cc(S(=O)(=O)[O-])ccc23)c2ccc(S(=O)(=O)[O-])cc21
In CO
  emission maximum: 776 nm
In O
  emission maximum: 768 nm

## CCc1c(C)c2n(c1C)[B-](F)(F)[N+]1=C(NCc3ccc(OC)cc3)C(SC#N)=CC1=C2C
In CC#N
  emission maximum: 582 nm
In CCCCCC
  emission maximum: 589 nm
In CCOC(C)=O
  emission maximum: 586 nm
In CO
  emission maximum: 583 nm
In ClCCl
  emission maximum: 586 nm

## CCCCCCc1ccc(-n2c3c4cccc(OC)c4nc(-c4ccc(C)cc4)c3c3c2c2c(-c4ccc(C)cc4)nc4c(OC)cccc4c2n3-c2ccc(CCCCCC)cc2)cc1
In ClC(Cl)Cl
  emission maximum: 464 nm

## O=C1CC(c2ccc(F)cc2)c2c(c3ccccc3c3nc4ccccc4nc23)O1 (configuration not stated)
In ClC(Cl)Cl
  emission maximum: 437 nm

## C(#Cc1ccccc1)C(C#Cc1ccccc1)=Cc1ccc(C=C(C#Cc2ccccc2)C#Cc2ccccc2)cc1
In ClC(Cl)Cl
  emission maximum: 475 nm

## Cc1cc(=O)oc2ccc3ccc(O)cc3c12
In CC#N
  emission maximum: 429 nm
In CCO
  emission maximum: 450 nm

## O=C1c2ccccc2-c2c(-c3cc(Cl)ccc3O)[nH]c(=O)n21
In CC#N
  emission maximum: 475 nm
In CO
  emission maximum: 493 nm
In ClCCl
  emission maximum: 475 nm

## Cc1cc2nc3c(=O)n(C)c(=O)nc-3n(C)c2cc1C
In CC#N
  emission maximum: 531 nm

## CCC1=C(C)C2=Cc3c4ccccc4c4n3[B-](c3ccncc3)(Oc3ccccc3-4)[N+]2=C1C=Cc1ccc(OC)cc1 (configuration not stated)
In CC#N
  emission maximum: 712 nm
In CCCCCC
  emission maximum: 711 nm
In Cc1ccccc1
  emission maximum: 720 nm
In ClCCl
  emission maximum: 717 nm

## Nc1ccc2c(c1)Cc1ccccc1-2
In C1CCCCC1
  emission maximum: 347 nm
In C1COCCO1
  emission maximum: 363 nm
In CC#N
  emission maximum: 363 nm
In CC(C)O
  emission maximum: 369 nm
In CCCCCC
  emission maximum: 344 nm
In CCCCCCC
  emission maximum: 344 nm
In CCO
  emission maximum: 368 nm
In CCOC(C)=O
  emission maximum: 360 nm
In CCOCC
  emission maximum: 349 nm
In CO
  emission maximum: 367 nm
In ClCCl
  emission maximum: 353 nm
In O
  emission maximum: 377 nm

## CN1CCN(CCCN2c3ccccc3Sc3ccc(Cl)cc32)CC1
In CC#N
  emission maximum: 449 nm
In CO
  emission maximum: 449 nm
In O
  emission maximum: 457 nm

## O=C1OC(=O)c2cc(Oc3ccccc3)c3c4ccc5c6c(cc(Oc7ccccc7)c(c7ccc1c2c73)c64)C(=O)OC5=O
In C1CCOC1
  emission maximum: 560 nm
In CN1CCCC1=O
  emission maximum: 595 nm
In CN(C)C=O
  emission maximum: 572 nm

## CC(C)[Si](C#Cc1c2cc3ccccc3cc2c(C#C[Si](C(C)C)(C(C)C)C(C)C)c2nc3ccccc3nc12)(C(C)C)C(C)C
In CCCCCC
  emission maximum: 699 nm
In ClCCl
  emission maximum: 738 nm

## CCCCCCCCCCCCN1C(=O)c2c(c3ccc4cc(-c5ccc(C)cc5)c(OC)cc4c3c3c2ccc2cc(-c4ccc(C)cc4)c(OC)cc23)C1=O
In ClCCl
  emission maximum: 529 nm

## CCCCCCCCCCCCn1c(-c2cc(-c3nc4ccc(C)cc4n3CCCCCCCCCCCC)cc(-c3nc4ccc(C)cc4n3CCCCCCCCCCCC)c2)nc2ccc(C)cc21
In C1CCOC1
  emission maximum: 375.8 nm

## CCCCCCC(CCCCCC)N1C(=O)c2cccc3c(-c4cc(OC)c(OC)c(OC)c4)ccc(c23)C1=O
In CCCCCC
  emission maximum: 440.2 nm
In CCCCCCCCCCCCCC
  emission maximum: 442.3 nm
In CCCCCCCCCCCO
  emission maximum: 526.4 nm
In CCCCO
  emission maximum: 572 nm
In CN(C)C=O
  emission maximum: 618.8 nm
In Cc1ccccc1
  emission maximum: 492.4 nm
In ClC(Cl)Cl
  emission maximum: 525.1 nm

## CC(C)(C)c1ccc2c(c1)c1cc(C(C)(C)C)ccc1n2-c1ccc(C#Cc2ccc(C=C(C#N)C#N)cc2)cc1
In CC#N
  emission maximum: 490 nm
In CCCCC
  emission maximum: 448 nm
In Cc1ccccc1
  emission maximum: 554 nm
In ClCCl
  emission maximum: 534 nm

## COC(=O)c1nc2c(OCc3ccccc3)nc(N)nc2n1Cc1ccccc1
In C1COCCO1
  emission maximum: 376 nm
In CC#N
  emission maximum: 382 nm
In CO
  emission maximum: 405 nm
In ClCCl
  emission maximum: 371 nm

## c1ccc2c3c(ccc2c1)C1(c2cc(-c4ccc5ccc6cccc7ccc4c5c67)ccc2-c2ccc(-c4ccc5ccc6cccc7ccc4c5c67)cc21)c1ccc2ccccc2c1O3
In ClC(Cl)Cl
  emission maximum: 422 nm

## N#CC=C(c1ccc(N2c3ccccc3Oc3ccccc32)cc1)c1ccc(N2c3ccccc3Oc3ccccc32)cc1
In Cc1ccccc1
  emission maximum: 574 nm

## F[B-]1(F)OC(c2ccc3ccccc3c2)=CC(c2ccc3ccccc3c2)=[O+]1
In CC#N
  emission maximum: 510 nm
In ClC(Cl)(Cl)Cl
  emission maximum: 428 nm

## c1cc(-n2c3ccccc3c3ccccc32)c(-c2nc3ccccn3n2)c(-n2c3ccccc3c3ccccc32)c1
In Cc1ccccc1
  emission maximum: 397 nm

## COc1ccc(-c2ccc(/C=C/c3cnc4ccccc4n3)cc2)cc1
In ClCCl
  emission maximum: 485 nm

## COc1ccc(C2=C3C=CC(C)=[N+]3[B-](F)(F)n3c(C)ccc32)cc1
In C1CCCCC1
  emission maximum: 521 nm
In C1CCOC1
  emission maximum: 521 nm
In CC#N
  emission maximum: 517 nm
In CCOC(C)=O
  emission maximum: 518 nm
In CO
  emission maximum: 518 nm
In Cc1ccccc1
  emission maximum: 524 nm
In ClC(Cl)Cl
  emission maximum: 523 nm

## O=C(O)CCCCCNC(=O)c1cccc2c(=O)c3ccccc3[nH]c12
In O
  emission maximum: 438 nm

## CN(C)c1ccc2cc3ccc(=[N+](C)C)cc-3oc2c1
In CCO
  emission maximum: 568 nm
In O
  emission maximum: 565 nm

## Cc1cc2c(ccc3c[n+](C)c(C)cc32)c[n+]1C
In CC#N
  emission maximum: 419 nm

## CN(C)c1ccc(/C=C/c2nc3ccccc3s2)cc1
In C1CCCCC1
  emission maximum: 447 nm
In C1CCOC1
  emission maximum: 482 nm
In C1COCCO1
  emission maximum: 467 nm
In CC#N
  emission maximum: 504 nm
In CC(C)O
  emission maximum: 493 nm
In CCCCCC
  emission maximum: 445 nm
In CCCCCCC
  emission maximum: 446 nm
In CCO
  emission maximum: 498 nm
In CCOC(C)=O
  emission maximum: 477 nm
In CCOCC
  emission maximum: 460 nm
In CN(C)C=O
  emission maximum: 504 nm
In CO
  emission maximum: 507 nm
In CS(C)=O
  emission maximum: 513 nm
In O
  emission maximum: 516 nm
In OCC(O)CO
  emission maximum: 530 nm

## N#Cc1cc2ccc(cc2)c2cccc3cccc(c4ccc(cc4)cc(C#N)c4ccc(cc4)c4cccc5cccc(c6ccc1cc6)c54)c32
In Cc1ccccc1
  emission maximum: 496 nm

## CC1=CC(C)=[N+]2C1=C(c1ccccc1)c1c(C)cc(/C=C/c3ccccc3)n1[B-]2(F)F
In CC#N
  emission maximum: 569 nm

## CCN(CC)c1ccc2c(c1)oc(=O)c1c(=O)oc3c(C)c4oc(=O)c5c(=O)oc6cc(N(CC)CC)ccc6c5c4cc3c12
In CS(C)=O
  emission maximum: 558 nm
In ClCCl
  emission maximum: 542 nm

## Cc1cc(O)c(C(=O)/C=C/c2ccc(Cl)cc2Cl)c(=O)o1
In CC#N
  emission maximum: 473 nm
In ClCCl
  emission maximum: 472 nm

## C[n+]1c2c(c(-c3ccccc3)c3c1CCCC3)CCCC2
In CCO
  emission maximum: 420 nm

## CCN(CC)c1ccc2cc(-c3cn4ccccc4n3)c(=O)oc2c1
In C1CCOC1
  emission maximum: 474 nm
In CC#N
  emission maximum: 475 nm
In CCO
  emission maximum: 482 nm
In CCOC(C)=O
  emission maximum: 468 nm
In CN(C)C=O
  emission maximum: 477 nm
In CO
  emission maximum: 485 nm
In CS(C)=O
  emission maximum: 482 nm
In Cc1ccccc1
  emission maximum: 469 nm
In ClC(Cl)Cl
  emission maximum: 471 nm
In ClCCl
  emission maximum: 478 nm

## COc1ccc(N2c3sc4ccccc4c3Sc3sc4ccccc4c32)cc1
In ClCCl
  emission maximum: 562 nm

## O=C1c2cccc3cc(C#CC#Cc4cc5c6c(cccc6c4)C(=O)N(c4ccccc4)C5=O)cc(c23)C(=O)N1c1ccccc1
In ClCCl
  emission maximum: 421 nm

## CSc1nccc(/C=C/c2ccc(N(c3ccccc3)c3ccc(/C=C/c4ccnc(SC)n4)cc3)cc2)n1
In ClCCl
  emission maximum: 540 nm

## C[Si]1(C)O[Si](C)(C)c2cc3c(-c4ccccc4F)c4cc(Cl)ccc4nc3cc21
In ClCCl
  emission maximum: 498 nm

## COc1cc(Br)cc2cc(-c3cc4cc(Br)cc(OC)c4oc3=O)oc12
In CC#N
  emission maximum: 381 nm
In CCOC(C)=O
  emission maximum: 434 nm
In CS(C)=O
  emission maximum: 387 nm
In Cc1ccccc1
  emission maximum: 430 nm
In O
  emission maximum: 497 nm

## Cc1ccc(-c2c3nc(c(-c4ccc(C)cc4)c4ccc([nH]4)c(-c4ccc(OC(=O)C(C)c5cccc(C(=O)c6ccccc6)c5)cc4)c4nc(c(-c5ccc(C)cc5)c5ccc2[nH]5)C=C4)C=C3)cc1 (configuration not stated)
In ClCCl
  emission maximum: 652 nm

## Cc1cc(C)c(B(c2c(C)cc(C)cc2C)N2c3ccccc3C(c3ccccc3)(c3ccccc3)c3ccccc32)c(C)c1
In C1CCCCC1
  emission maximum: 522 nm
In Cc1ccccc1
  emission maximum: 537 nm
In ClCCl
  emission maximum: 558 nm

## N#Cc1ccc(-n2c(-c3ccc(-c4ccc(-n5c6ccccc6c6ccccc65)cc4)s3)nc3c4ccccc4c4ccccc4c32)c2ccccc12
In ClCCl
  emission maximum: 400 nm

## C/C(=C\c1ccccc1)c1nc2ccccc2o1
In C1CCCCC1
  emission maximum: 370 nm
In CO
  emission maximum: 380 nm
